In this series the test system is RAW264.7 cells. Kind of series: Cytotoxicity assay (XTT, cell viability). The settings on record: 4 days, at concentrations of 2.5, 5, 10, and 25 μM (FIG. 7 to FIG. 10). As to the method:
The cells were treated with 50 μl of XTT reagent per well, then reacted for four hours. An absorbance change thereof was measured at 490 nm and 650 nm (reference wavelength) by ELISA (enzyme linked immunosorbent assay) reader (Molecular Devices, USA), and a cell viability was expressed as a percentage.
For orientation: Formazan colour is commonly taken as a measure of viable cells.

The values below come from patent US20240325484A1, “COMPOSITION COMPRISING HORSE CHESTNUT EXTRACT” (ANGIOLAB, INC., priority 2021, published 2024).

Take `C[C@@H]1O[C@@H](Oc2c(-c3ccc(O)c(O)c3)oc3cc(O)cc(O)c3c2=O)[C@H](O)[C@H](O)[C@H]1O` [quercitrin, Quercitrin]: the cytotoxicity result is reported as “no cytotoxicity”.
